# Data as given in patent US7868037B2 (PTC Therapeutics, Inc., priority 2004, dated 2011).
# Assays:
# HCV replicon = assay: microbe, parasite or virus in culture; type: cell-based, hepatitis C virus; conditions: Hepatitis C virus, read-out: Replicon IC50 μM
SMILES,IC50 (HCV replicon) [µM],melting point [°C]
"CCn1c(-c2ccc(N3CCCS3(=O)=O)cc2)c(C#N)c2ccc(OCCN3CCOCC3)cc21 [Compound 729, 2-[4-(1,1-dioxo-1λ^6-isothiazolidin-2-yl)-phenyl]-1-ethyl-6-(2-morpholin-4-yl-ethoxy)-1H-indole-3-carbonitrile]",> 2,213 to 217
"CCn1c(-c2ccc(N3CCCS3(=O)=O)cc2)c(C#N)c2ccc(OC(C)C)cc21 [Compound 666, 2-[4-(1,1-dioxo-1λ^6-isothiazolidin-2-yl)phenyl]-1-ethyl-6-isopropoxy-1H-indole-3-carbonitrile]",< 0.5,207 to 209
"CCOc1ccc2c(C#N)c(-c3ccc(N4CC(=O)NC4=O)cc3)n(CC)c2c1 [Compound 776, 2-[4-(2,4-dioxo-imidazolidin-1-yl)phenyl]-6-ethoxy-1-ethyl-1H-indole-3-carbonitrile]",< 0.5,257 to 258
"CCOc1ccc(-c2c(C#N)c3ccc(N)cc3n2CC)cc1 [Compound 833, 6-amino-2-(4-ethoxyphenyl)-1-ethyl-1H-indole-3-carbonitrile]",0.5 to 2,183 to 185
"CCOC(=O)Nc1ccc2c(C#N)c(-c3ccc(OCC)cc3)n(CC)c2c1 [Compound 838, [3-cyano-2-(4-ethoxyphenyl)-1-ethyl-1H-indol-6-yl]-carbamic acid ethyl ester]",0.5 to 2,193 to 194
"CCOC(=O)c1c(C)n(-c2ccc(OC)cc2)c2ccc(OC(F)F)cc12 [Compound 49, ethyl 5-difluoromethoxy-1-(4-methoxyphenyl)-2-methyl-1H-indole-3-carboxylate]",> 2,89 to 90
"CCNC(=O)NCCOc1ccc(-c2c(C#N)c3ccc(OC)cc3n2CC)cc1 [Compound 279, 1-{2-[4-(3-cyano-1-ethyl-6-methoxy-1H-indol-2-yl)-phenoxy]ethyl}-3-ethyl-urea]",> 2,197 to 202
"CCNC(=O)Nc1ccc2c(C#N)c(-c3ccc(OCC)cc3)n(CC)c2c1 [Compound 839, 1-[3-cyano-2-(4-ethoxyphenyl)-1-ethyl-1H-indol-6-yl]-3-ethyl-urea]",> 2,249 to 250
"CCn1c(C#Cc2ccc(NC=O)cc2)c(C#N)c2ccc(OC)cc21 [Compound 241, N-[4-(3-cyano-1-ethyl-6-methoxy-1H-indol-2-ylethynyl)-phenyl]-formamide]",> 2,184 to 188
"CCOc1ccc2c(C#N)c(-c3ccc(N4C(=O)CNC4=O)cc3)n(CC)c2c1 [Compound 779, 2-[4-(2,5-dioxo-imidazolidin-1-yl)-phenyl]-6-ethoxy-1-ethyl-1H-indole-3-carbonitrile]",< 0.5,265 to 267
"CCn1c(C#Cc2ccc(F)cc2)c(C#N)c2ccc(OC)cc21 [Compound 67, 1-ethyl-2-(4-fluorophenylethynyl)-6-methoxy-1H-indole-3-carbonitrile]",0.5 to 2,132 to 136
"CCn1c(-c2ccc(OCCOC)cc2)c(C#N)c2ccc(OC)cc21 [Compound 248, 1-ethyl-6-methoxy-2-[4-(2-methoxyethoxy)-phenyl]-1H-indole-3-carbonitrile]",0.5 to 2,117 to 121
"CCn1c(-c2ccc(S(C)(=O)=O)cc2)c(C#N)c2ccc(OC)cc21 [Compound 265, 1-ethyl-2-(4-methanesulfonylphenyl)-6-methoxy-1H-indole-3-carbonitrile]",> 2,204 to 206
"CCn1c(-c2ccc(N(CCO)S(C)(=O)=O)cc2)c(C#N)c2ccc(OC)cc21 [Compound 828, N-[4-(3-cyano-1-ethyl-6-methoxy-1H-indol-2-yl)-phenyl]-N-(2-hydroxyethyl)-methanesulfonamide]",0.5 to 2,198 to 200
"CCn1c(-c2ccc(NC(C)=O)cc2)c(C#N)c2ccc(OC)cc21 [Compound 128, N-[4-(3-Cyano-1-ethyl-6-methoxy-1H-indol-2-yl)-phenyl]-acetamide]",> 2,218 to 220
"CCn1c(-c2ccc(N3CCNS3(=O)=O)cc2)c(C#N)c2ccc(OC)cc21 [Compound 725, 2-[4-(1,1-dioxo-1λ^6-[1,2,5]thiadiazolidin-2-yl)phenyl]-1-ethyl-6-methoxy-1H-indole-3-carbonitrile]",0.5 to 2,215 to 216
"COc1ccc2c(C#N)c(-c3ccc(N4CCCS4(=O)=O)cc3)n(CC3CC3)c2c1 [Compound 716, 2-[4-(1,1-dioxidoisothiazolidin-2-yl)phenyl]-1-cyclopropylmethyl-6-methoxy-1H-indole-3-carbonitrile]",< 0.5,204 to 205
"CCn1c(-c2cccc(O)c2)c(C#N)c2ccc(OC)cc21 [Compound 288, 1-ethyl-2-(3-hydroxyphenyl)-6-methoxy-1H-indole-3-carbonitrile]",> 2,194 to 199
"CCn1c(-c2ccc(OCC(=O)N3CC[C@H](O)C3)cc2)c(C#N)c2ccc(OC)cc21 [Compound 285, 1-ethyl-2-{4-[2-(3-hydroxypyrrolidin-1-yl)-2-oxo-ethoxy]phenyl}-6-methoxy-1H-indole-3-carbonitrile]",> 2,185 to 190

SMILES,IC50 (HCV replicon) [µM],melting point [°C]
"CCn1c(-c2ccc(O)c(NC(=O)CCl)c2)c(C#N)c2ccc(OC)cc21 [Compound 333, 2-chloro-N-[5-(3-cyano-1-ethyl-6-methoxy-1H-indol-2-yl)-2-hydroxyphenyl]acetamide]",0.5 to 2,237 to 240
"CCn1c(-c2ccc(N(C)S(C)(=O)=O)cc2)c(C#N)c2ccc(OC)cc21 [Compound 180, N-[4-(3-cyano-1-ethyl-6-methoxy-1H-indol-2-yl)-phenyl]-N-methyl methanesulfonamide]",0.5 to 2,170 to 171
"CCn1c(-c2ccc(OCCNC(C)=O)cc2)c(C#N)c2ccc(OC)cc21 [Compound 274, N-{2-[4-(3-cyano-1-ethyl-6-methoxy-1H-indol-2-yl)-phenoxy]-ethyl}acetamide]",> 2,166 to 172
"N#Cc1c(-n2cccc2)[nH]c2cc([N+](=O)[O-])ccc12 [Compound 7, 6-nitro-2-pyrrol-1-yl-1H-indole-3-carbonitrile]",0.5 to 2,304 to 305
"CCn1cc(-c2ccccc2)c2cc([N+](=O)[O-])ccc21 [Compound 41, N-ethyl-3-phenyl-5-nitroindole]",> 2,155 to 175
"CCn1c(-c2ccc3[nH]c(=O)oc3c2)c(C#N)c2ccc(OC)cc21 [Compound 340, 1-ethyl-6-methoxy-2-(2-oxo-2,3-dihydro-benzooxazol-6-yl)-1H-indole-3-carbonitrile]",> 2,243 to 248
"CCn1c(-c2ccc(NS(C)(=O)=O)cc2)c(C#N)c2ccc(OC)cc21 [Compound 129, N-[4-(3-Cyano-1-ethyl-6-methoxy-1H-indol-2-yl)-phenyl]-methanesulfonamide]",0.5 to 2,188 to 190
"CCn1cc(-c2cc(-c3ccc(OC)cc3)on2)c2ccc(OC)cc21 [Compound 116, 1-ethyl-6-methoxy-3-[5-(4-methoxyphenyl)-isoxazol-3-yl]-1H-indole]",> 2,116 to 118
"CCn1cc(-c2ccno2)c2ccc(OC)cc21 [Compound 58, 1-ethyl-3-isoxazol-5-yl-6-methoxy-1H-indole]",> 2,76 to 79
"CCn1c(-c2ccc(N)cc2)c(C#N)c2ccc(OC)cc21 [Compound 55, 2-(4-aminophenyl)-1-ethyl-6-methoxy-1H-indole-3-carbonitrile]",> 2,183 to 185
"CCOc1ccc2c(C#N)cn(CC)c2c1 [Compound 9, 6-ethoxy-1-ethyl-1H-indole-3-carbonitrile]",> 2,61 to 63
"CCOc1ccc2c(C#N)c(-c3ccc(NC(=O)NC(Cc4ccccc4)C(=O)OC)cc3)n(CC)c2c1 (stereo not shown) [Compound 777, methyl 2-{3-[4-(3-cyano-6-ethoxy-1-ethyl-1H-indol-2-yl)-phenyl]-ureido}-3-phenyl-propionate]",< 0.5,124 to 127
"CCn1c(-c2ccc(N3CCN(C)S3(=O)=O)cc2)c(C#N)c2ccc(OC)cc21 [Compound 726, 1-ethyl-6-methoxy-2-[4-(5-methyl-1,1-dioxo-1λ^6-[1,2,5]thiadiazolidin-2-yl)-phenyl]-1H-indole-3-carbonitrile]",0.5 to 2,221 to 222
"CCOc1ccc(-c2c(C#N)c3ccc(NC(=O)OC(C)(C)C)cc3n2CC)cc1 [Compound 832, [3-cyano-2-(4-ethoxy-phenyl)-1-ethyl-1H-indol-6-yl]-carbamic acid tert-butyl ester]",0.5 to 2,206 to 207
"CCn1c(COc2ccccc2)c(C#N)c2ccc(OC)cc21 [Compound 99, 1-ethyl-6-methoxy-2-phenoxymethyl-1H-indole-3-carbonitrile]",> 2,123.4 to 123.8
"CCn1cc(-c2ncco2)c2ccc(C(=O)OC)cc21 [Compound 75, methyl 1-ethyl-3-oxazol-2-yl-1H-indole-6-carboxylate]",> 2,118 to 123
"CCn1cc(C#N)c2ccc(NC(=O)OC(C)(C)C)cc21 [Compound 16, t-butyl(3-cyano-1-ethyl-1H-indol-6-yl)-carbamate]",> 2,175 to 177
"CCn1c(-c2ccc(OCCN=[N+]=[N-])cc2)c(C#N)c2ccc(OC)cc21 [Compound 266, 2-[4-(2-azidoethoxy)phenyl]-1-ethyl-6-methoxy-1H-indole-3-carbonitrile]",0.5 to 2,96 to 99
"CCn1c(-c2ccc(OCCNS(C)(=O)=O)cc2)c(C#N)c2ccc(OC)cc21 [Compound 268, N-{2-[4-(3-cyano-1-ethyl-6-methoxy-1H-indol-2-yl)-phenoxy]-ethyl}methanesulfonamide]",0.5 to 2,137 to 143
